# Key:
# [1] = target: T1, cloned human 5-HT1A receptors (Homo sapiens, UniProt P08908); test: Inhibition of 3H-5-CT binding to human 5-HT1A receptors; settings: cloned human 5-HT1A receptors expressed in HeLa cells (HA7)
# T1 construct: expressed in transfected cells; host or cells: HeLa cells (HA7), stably transfected; cell homogenate
# T1 sequence (P08908 1-422): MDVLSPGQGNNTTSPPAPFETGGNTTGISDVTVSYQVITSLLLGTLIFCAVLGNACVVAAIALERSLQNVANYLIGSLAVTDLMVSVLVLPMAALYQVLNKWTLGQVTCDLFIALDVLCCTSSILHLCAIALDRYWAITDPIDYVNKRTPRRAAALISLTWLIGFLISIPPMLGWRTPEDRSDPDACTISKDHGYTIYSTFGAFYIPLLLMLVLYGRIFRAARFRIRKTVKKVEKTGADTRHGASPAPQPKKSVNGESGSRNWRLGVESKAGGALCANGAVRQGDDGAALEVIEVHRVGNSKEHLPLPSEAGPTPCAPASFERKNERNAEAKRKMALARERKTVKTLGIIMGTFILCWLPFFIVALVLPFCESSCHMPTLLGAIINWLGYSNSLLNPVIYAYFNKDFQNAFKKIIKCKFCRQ
# Method: Inhibition of ^3H-5CT Binding to Human 5-HT1A Receptors
# Human 5-HT1A receptors (40 μg of cell homogenate) were incubated for 15 minutes at 37° C. in 50 mM Tris buffer at pH 7.7 in the presence of ^3H-5-CT. Non-specific binding was determined by including 10 μM of metergoline. The reaction was terminated by rapid filtration through Unifilter GF/B filters on a Tomtec Cell Harvester. Filters were counted in a Packard Top Counter.
# [2] = system: serotonin reuptake (3H-5-HT uptake into whole rat brain synaptosomes); test: Inhibition of 3H-5-HT uptake into rat brain synaptosomes; format: biochemical
# Method: Inhibition of ^3H-5HT Uptake Into Rat Brain Synaptosomes
# Using this method, the ability of drugs to inhibit the accumulation of ^3H-5-HT into whole rat brain synaptosomes is determined in vitro.
Structure (SMILES),IC50 [1] [nM],IC50 [2] [nM],Inhibition of serotonin reuptake % inhibition at 100 nM [2] [% inh. at 100 nM],"inhibition at 0.1 µM ([1]; read-out: Inhibition of 3H-5-CT binding % inhibition at 100 nM, at 100 nM) [%]"
"C=CCN(CCCC1(c2ccc(F)cc2)OCc2cc(C#N)ccc21)CCc1c[nH]c2ccccc12 (stereo not drawn) [Compound 4h, 1-[3-[[2-(1H-Indolyl-3-yl)ethyl](prop-2-en-1-yl)amino]propyl]-1-(4-fluorophenyl) 1,3-dihydroisobenzofuran-5carbonitrile]",3.2,69,–,–
"C=CCN(CCCC1(c2ccc(F)cc2)OCc2cc(C#N)ccc21)CCOc1ccccc1 (stereo not drawn) [Compound 4i, 1-(4-Fluorophenyl)-1-[3-[[2-phenoxyethyl](prop-2-en-1-yl)amino]propyl]-1,3-dihydroisobenzofuran-5carbonitrile]",1.9,–,26,–
"COc1ccccc1CCCN(C)CCCC1(c2ccc(F)cc2)OCc2cc(C#N)ccc21 (stereo not drawn) [Compound 4j, 1-(4Fluorophenyl)-1-[3-[[3-(2-methoxyphenyl)propyl]methylamino]propyl]-1,3-dihydroisobenzofuran-5-carbonitrile]",6.1,78,–,–
"C=CCN(CCCc1ccccc1OC)CCCC1(c2ccc(F)cc2)OCc2cc(C#N)ccc21 (stereo not drawn) [Compound 4k, 1-(4-Fluorophenyl)-1-[3-[[3-(2-methoxyphenyl)propyl](prop-2-en-1-yl)amino]propyl]-1,3-dihydroisobenzofuran-5-carbonitrile]",0.42,100,–,–
"C=CCN(CCCOc1ccccc1OC)CCCC1(c2ccc(F)cc2)OCc2cc(C#N)ccc21 (stereo not drawn) [Compound 4n, 1-(4-Fluorophenyl)-1-[3-[[3-(2-methoxyphenoxy)propyl](prop-2-en-1-yl)amino]propyl]-1,3-dihydroisobenzofuran-5-carbonitrile]",14,–,39,–
"COc1cccc(OCCCN(C)CCCC2(c3ccc(F)cc3)OCc3cc(C#N)ccc32)c1 (stereo not drawn) [Compound 4o, 1-(4-Fluorophenyl)-1-[3-[[3-(3-methoxyphenoxy)propyl]methylamino]propyl]-1,3-dihydroisobenzofuran-5-carbonitrile]",26,73,–,–
C=CCN(CCCOc1cccc(OC)c1)CCCC1(c2ccc(F)cc2)OCc2cc(C#N)ccc21 (stereo not drawn) [Compound 4p],19,–,6,–
"CN(CCCC1(c2ccc(F)cc2)OCc2cc(C#N)ccc21)CCOCc1ccccc1 (stereo not drawn) [Compound 4q, 1-[3-[(2-Benzyloxyethyl)methylamino]propyl]-1-(4-fluorophenyl)-1,3-dihydroisobenzofuran-5-carbonitrile]",16,–,60,–
"C=CCN(CCCC1(c2ccc(F)cc2)OCc2cc(C#N)ccc21)CCOCc1ccccc1 (stereo not drawn) [Compound 4r, 1-[3-[(2-Benzyloxyethyl)(prop-2-en-1-yl)amino]propyl]-1-(4-fluorophenyl)-1,3-dihydroisobenzofuran-5-carbonitrile]",11,–,19,–
"CN(CCCc1c[nH]c2ccccc12)CCCC1(c2ccc(F)cc2)OCc2cc(C#N)ccc21 (stereo not drawn) [Compound 4s, 1-[3-[[3-(1H-Indol-3-yl)propyl]methylamino]propyl]-1-(4-fluorophenyl)-1,3-dihydroisobenzofuran-5-carbonitrile]",30,35,–,–
"C=CCN(CCCc1c[nH]c2ccccc12)CCCC1(c2ccc(F)cc2)OCc2cc(C#N)ccc21 (stereo not drawn) [Compound 4t, 1-[3-[[3-(1H-Indol-3-yl)propyl](prop-2-en-1-yl)amino]propyl]-1-(4-fluorophenyl)-1,3-dihydroisobenzofuran-5-carbonitrile]",–,–,73,69
"CN(CCCc1c[nH]c2ccc(Br)cc12)CCCC1(c2ccc(F)cc2)OCc2cc(C#N)ccc21 (stereo not drawn) [Compound 12aa, 1-[3-[[3-(5-Bromo-1H-indol-3-yl)propyl]methylamino]propyl]-1-(4-fluorophenyl)-1,3-dihydroisobenzofuran-5-carbonitrile]",16,–,37,–
"CCN(CCCC1(c2ccc(F)cc2)OCc2cc(C#N)ccc21)CCc1c[nH]c2ccc(Br)cc12 (stereo not drawn) [Compound 12ab, 1-[3-[[2-(5-Bromo-1H-indol-3-yl)ethyl]ethylamino]propyl]-1-(4-fluorophenyl)-1,3-dihydroisobenzofuran-5-carbonitrile]",20,–,50,–
"CCN(CCCc1c[nH]c2ccc(Br)cc12)CCCC1(c2ccc(F)cc2)OCc2cc(C#N)ccc21 (stereo not drawn) [Compound 12ad, 1-(3-[[3-(5-Bromo-1H-indol-3-yl)propyl]ethylamino]propyl]-1-(4fluorophenyl)-1,3-dihydroisobenzofuran-5-carbonitrile]",21,–,35,–
CCN(CCCC1(c2ccc(F)cc2)OCc2cc(C#N)ccc21)CCc1c[nH]c2ccc(I)cc12 (stereo not drawn) [Compound 12ae],11,–,49,–
"CCN(CCCc1c[nH]c2ccc(I)cc12)CCCC1(c2ccc(F)cc2)OCc2cc(C#N)ccc21 (stereo not drawn) [Compound 12af, 1-[3-[Ethyl[3-(5-iodo-1H-indol-3-yl)propyl]amino]propyl]-1-(4-fluorophenyl)-1,3-dihydroisobenzofuran-5-carbonitrile]",31,–,38,–
"Cc1ccc2[nH]cc(CCCN(C)CCCC3(c4ccc(F)cc4)OCc4cc(F)ccc43)c2c1 (stereo not drawn) [Compound 12c, 5-Fluoro-1-[3-[[3-(5-methyl-1H-indol-3-yl)propyl]methylamino]propyl]-1-(4-fluorophenyl)-1,3-dihydroisobenzofuran]",19,17,–,–
"CN(CCCc1c[nH]c2c(F)cccc12)CCCC1(c2ccc(F)cc2)OCc2cc(F)ccc21 (stereo not drawn) [Compound 12d, 5-Fluoro-1-[3-[[3-(7-fluoro-1H-indol-3-yl)propyl]methylamino]propyl]-1-(4-fluorophenyl)-1,3dihydroisobenzofuran]",31,12,–,–
CCN(CCCc1c[nH]c2ccccc12)CCCC1(c2ccc(F)cc2)OCc2cc(C#N)ccc21 (stereo not drawn) [Compound 12f],4.7,13,–,–
"CN(CCCc1c[nH]c2ccc(F)cc12)CCCC1(c2ccc(F)cc2)OCc2cc(C#N)ccc21 (stereo not drawn) [Compound 12i, 1-[3-[[3-(5-Fluoro-1H-indol-3-yl)propyl]methylamino]propyl]-1-(4-fluorophenyl)-1,3-dihydroisobenzofuran-5-carbonitrile]",27,20,–,–
"CCN(CCCC1(c2ccc(F)cc2)OCc2cc(C#N)ccc21)CCc1c[nH]c2ccc(F)cc12 (stereo not drawn) [Compound 12j, 1-[3-[Ethyl[2-(5-fluoro-1H-indol-3-yl)ethyl]amino]propyl]-1-(4fluorophenyl)-1,3-dihydroisobenzofuran-5-carbonitrile]",7.9,14,–,–
CCN(CCCC1(c2ccc(F)cc2)OCc2cc(C#N)ccc21)CCc1c[nH]c2c(F)cccc12 (stereo not drawn) [Compound 12k],3.6,8.4,–,–
"CCN(CCCc1c[nH]c2ccc(C)cc12)CCCC1(c2ccc(F)cc2)OCc2cc(C#N)ccc21 (stereo not drawn) [Compound 12o, 1-[3-[Ethyl[3-(5-methyl-1H-indol-3-yl)propyl]amino]propyl]-1-(4-fluorophenyl)-1,3-dihydroisobenzofuran-5-carbonitrile]",6.2,–,49,–
"CCN(CCCc1c[nH]c2c(F)cccc12)CCCC1(c2ccc(F)cc2)OCc2cc(C#N)ccc21 (stereo not drawn) [Compound 12p, 1-[3-[Ethyl[3-(7-fluoro-1H-indol-3-yl)propyl]amino]propyl]-1-(4-fluorophenyl)-1,3-dihydroisobenzofuran-5carbonitrile]",19,11,–,–
"CCN(CCCc1c[nH]c2ccc(F)cc12)CCCC1(c2ccc(F)cc2)OCc2cc(C#N)ccc21 (stereo not drawn) [Compound 12q, 1-[3-[Ethyl[3-(5-fluoro-1H-indol-3-yl)propyl]amino]propyl]-1-(4-fluorophenyl)-1,3-dihydroisobenzofuran-5carbonitrile]",12,6.3,–,–
"CN(CCCc1c[nH]c2ccc(Cl)cc12)CCCC1(c2ccc(F)cc2)OCc2cc(C#N)ccc21 (stereo not drawn) [Compound 12r, 1-[3-[[3-(5-Chloro-1H-indol-3-yl)propyl]methylamino]propyl]-1-(4-fluorophenyl)-1,3-dihydroisobenzofuran-5-carbonitrile]",16,–,47,–
"CCN(CCCC1(c2ccc(F)cc2)OCc2cc(C#N)ccc21)CCc1c[nH]c2c(Cl)cccc12 (stereo not drawn) [Compound 12s, 1-[3-[[2-(7-Chloro-1H-indol-3-yl)ethyl]ethylamino]propyl]-1-(4-fluorophenyl)-1,3-dihydroisobenzofuran-5-carbonitrile]",7.7,18,–,–

# Source: patent publication US6492374B2, “Benzofuran derivatives, their preparation and use” (H. Lundbeck A/S, priority 1998, dated 2002)
